Test results: publication PMC6278537, “Simultaneous Determination and Pharmacokinetics Study of Six Triterpenes in Rat Plasma by UHPLC-MS/MS after Oral Administration of Sanguisorba officinalis L. Extract” (Molecules, 2018)
Like-named read-outs stand apart in the source and are kept apart here.

Columns and labels:
[1] = Pharmacokinetic study in rats after single oral administration of S. officinalis extract (UHPLC-MS/MS of plasma); assay type: in vivo, Sprague-Dawley rats; conditions: for Cmax / AUC(0-inf) / AUC(0-t) / Tmax / half-life: rat plasma, single oral dose of S. officinalis extract 0.015 g/kg, n = 12, mean ± SD; for time of first peak of mean plasma concentration-time curve (double-peak phenomenon) / time of second peak of mean plasma concentration-time curve (double-peak phenomenon): rats, after oral administration of S. officinalis extract, Figure 4
Description: The UHPLC-MS/MS method was successfully used in the pharmacokinetic studies of six analytes after single dose administration of S. officinalis extract in rats. Based on the body surface area calculations of people and the animals and equivalent dose conversion calculations, the dosage of the rats was 0.015 g/kg. The half-time (t1/2), maximum plasma concentration (Cmax), time to reach Cmax (Tmax), and area under concentration–time curve (AUC0→t and AUC0→∞) were calculated via non-compartmental analysis (Table 6). The pharmacokinetic parameters of six components were reckoned by means of non-compartmental analysis using DAS 2.0 (Shanghai, China).
The experimental protocol was permitted by the Animal Ethics Committee of Harbin Medical University and conformed to the principles for the Care and Use of Laboratory Animals. Twelve male Sprague-Dawley rats (Weight 200 ± 20 g) were provided by the Laboratory Animal Centre of Harbin Medical University (Harbin, China). Each rat was fasted for 12 h before giving the drug and had free water supply even during the experiment. The S. officinalis extract was dissolved in water. A single dose of the S. officinalis extract (0.015 g/kg) was administrated to the rats. Blood (0.3 mL) was gained from the retinal venous plexus at 0, 0.083, 0.25, 0.5 1.0, 1.5, 2.0, 3.0, 4.0, 6.0, 8.0, 12.0 and 24.0 h after dosing. The plasma was immediately separated by centrifugation at 12000 rpm for 5 min at […].
Ten microliters of IS (1040.0 ng/mL) solution and 100 μL of methanol were added to 100 μL aliquot of plasma sample and vortexed for 30 s. The mixture was extracted with 3 mL ethyl acetate by being vortex-mixed for 1 min. The supernatant was separated and evaporated to dryness by N2 blowing at 40 °C after centrifuging at 3800 rpm for 5 min. The residue was reconstituted with 100 μL of methanol, and then vortex-mixed for 2 min and filtered by a 0.22 μm nylon 66 organic membrane. This was followed by injection of 5 μL aliquot of the solution into the UHPLC-MS/MS system (Agilent Technologies, Santa Clara, CA, USA).
The maximum concentration (Cmax) and the time to attain it (Tmax) were observed directly from the measured data. The elimination rate constant (Ke) was calculated by linear regression of the terminal points in a semi-log plot of the plasma concentration against time. The elimination half-life (t1/2) was calculated using the formula t1/2 = 0.693/Ke. The area under plasma concentration–time curve (AUC0→t) to the last measurable plasma concentration (Ct) was estimated by using the linear trapezoidal rule. The area under the plasma concentration–time curve to time infinity (AUC0→∞) was calculated as: AUC0→∞ = AUC0→t + Ct/Ke. The pharmacokinetic parameters of six analytes were reckoned by non-compartmental analysis using DAS 2.0 (Mathematical Pharmacology Professional Committee of China, Shanghai, China).

[2] = Stability of analytes in rat plasma under various storage conditions; assay type: in vitro ADME; conditions: for Stability Post-Preparation: 12 h after sample preparation at 4 °C; for Stability Short-Term / Stability Long-Term / Stability Three Freeze-Thaw: rat plasma; for Stability Short-Term: room temperature 4 h; for Stability Long-Term: storage for 2 weeks; for Stability Three Freeze-Thaw: three freeze–thaw cycles at −20 °C
Description: The stability of six analytes in rat plasma was estimated under different storage conditions. […] Post-preparative stability of analytes also implied that there was no obvious degradation when samples were kept at 4 °C for 12 h. In addition, all compounds remained stable for two weeks at […].
The stability of six compounds in rat plasma including freeze and thaw stability (three freeze–thaw cycles at −20 °C), long-term stability (storage for 2 weeks at −80 °C), room temperature stability (storage for 4 h at ambient temperature), and post-preparation stability […] All stability testing QC samples were determined by using the calibration curve of freshly prepared standard samples.

[3] = male, Sprague-Dawley, rat, plasma, po, 0.015 g/kg, read-out: Cmax

Row | Structure (SMILES) | Cmax [1, 3] [ng/mL] | AUC(0-inf) ([1]; male, Sprague-Dawley) [ng·h/mL] | AUC(0-t) ([1]; male, Sprague-Dawley) [ng·h/mL] | Tmax ([1]; male, Sprague-Dawley) [h] | half-life ([1]; male, Sprague-Dawley) [h] | Cmax [1] [ng/mL] | time of first peak of mean plasma concentration-time curve (double-peak phenomenon) [1] [h] | time of second peak of mean plasma concentration-time curve (double-peak phenomenon) [1] [h] | Stability Post-Preparation ([2]; high QC spiked concentration) [% RE] | Stability Post-Preparation ([2]; low QC spiked concentration) [% RE] | Stability Post-Preparation ([2]; medium QC spiked concentration) [% RE] | Stability Short-Term ([2]; high QC spiked concentration) [% RE] | Stability Short-Term ([2]; low QC spiked concentration) [% RE] | Stability Short-Term ([2]; medium QC spiked concentration) [% RE] | Stability Long-Term ([2]; high QC spiked concentration) [% RE] | Stability Long-Term ([2]; low QC spiked concentration) [% RE] | Stability Long-Term ([2]; medium QC spiked concentration) [% RE] | Stability Three Freeze-Thaw ([2]; high QC spiked concentration) [% RE] | Stability Three Freeze-Thaw ([2]; low QC spiked concentration) [% RE] | Stability Three Freeze-Thaw ([2]; medium QC spiked concentration) [% RE]
1 | C[C@@H]1CC[C@]2(C(=O)O[C@@H]3O[C@H](CO)[C@@H](O)[C@H](O)[C@H]3O)CC[C@]3(C)C(=CC[C@@H]4[C@@]5(C)CC[C@H](O[C@@H]6OC[C@H](O)[C@H](O)[C@H]6O)C(C)(C)[C@@H]5CC[C@]43C)[C@@H]2[C@]1(C)O [I, ziyuglycoside I] | 745 ± 85.7 | 3320 ± 429 | 2880 ± 303 | 0.92 ± 0.2 | 11.6 ± 3.07 | 744.7 ± 85.7 | 0.5 to 1.5 | 4 to 8 | −9.95 | −2.07 | 3.53 | 2.44 | 4.27 | 6.27 | 2.03 | 2.43 | −6.57 | 2.51 | 6.07 | 10.19
2 | CC1CCC2(C(=O)OC3OC(CO)C(O)C(O)C3O)CCC3(C)C(=CCC4C5(C)CCC(O)C(C)(C)C5CCC43C)C2C1(C)O [II, 3β,19α-dihydroxyurs-12-en-28-oic-acid 28-β-D-glucopyranosyl ester] | 527 ± 64 | 2660 ± 601 | 2300 ± 417 | 0.83 ± 0.26 | 8.99 ± 3.04 | 526.6 ± 64.0 | 0.5 to 1.5 | 4 to 8 | 3.04 | 5.22 | 4.11 | 2.47 | −5.94 | 4.60 | 2.24 | −3.19 | 2.08 | 2.74 | 2.66 | −2.95
3 | CC1=C2C3=CCC4C5(C)CCC(OC6OCC(O)C(O)C6O)C(C)(C)C5CCC4(C)C3(C)CCC2(C(=O)OC2OC(CO)C(O)C(O)C2O)CCC1C [III, 3β-[(α-L-arabinopyranosyl)oxy]-urs-12,18(19)-dien-28-oic acid β-D-glucopyranosyl ester] | 318 ± 47.6 | 1230 ± 193 | 1140 ± 150 | 1.33 ± 0.26 | 6.86 ± 2.91 | 317.9 ± 47.6 | 0.25 | < 1.5 | 1.10 | −1.34 | −2.48 | −2.42 | −5.54 | −7.66 | 4.31 | 3.75 | −5.18 | −3.38 | −7.72 | −5.29
4 | C[C@@H]1CC[C@]2(C(=O)O[C@@H]3O[C@H](CO)[C@@H](O)[C@H](O)[C@H]3O)CC[C@]3(C)C(=CC[C@@H]4[C@@]5(C)C[C@@H](O)[C@H](O)C(C)(C)[C@@H]5CC[C@]43C)[C@@H]2[C@]1(C)O [IV, rosamultin] | 315 ± 22.5 | 1300 ± 193 | 1210 ± 120 | 1.58 ± 0.2 | 7.32 ± 2.74 | 314.5 ± 22.5 |  |  | 3.95 | 7.45 | 2.23 | 4.55 | 9.63 | 7.81 | −6.75 | 4.88 | 2.71 | 2.07 | 6.80 | 3.84
5 | CC1CCC2(C(=O)O)CCC3(C)C(=CCC4C5(C)C(O)C(O)C(O)C(C)(C)C5CCC43C)C2C1(C)O (stereo not drawn) [V, 1β-hydroxyeuscaphic acid] | 212 ± 11.8 | 794 ± 152 | 733 ± 94.1 | 0.58 ± 0.2 | 7.35 ± 3.95 | 211.5 ± 11.8 |  |  | −3.03 | 8.48 | 5.23 | 2.56 | −4.77 | −3.67 | 3.06 | 9.86 | 6.95 | 2.28 | −9.67 | 3.99
6 | C=C1[C@H]2C3=CC[C@@H]4[C@@]5(C)C[C@@H](O)[C@@H](O)C(C)(C)[C@@H]5CC[C@@]4(C)[C@]3(C)CC[C@@]2(C(=O)O[C@@H]2O[C@H](CO)[C@@H](O)[C@H](O)[C@H]2O)CC[C@H]1C [VI, alpinoside] | 243 ± 19.9 | 1110 ± 98.1 | 1030 ± 73.4 | 1.17 ± 0.26 | 7.72 ± 1.22 | 243.2 ± 19.9 | 0.5 to 1.5 | 4 to 8 | 4.85 | 3.18 | 9.78 | 3.26 | −10.78 | 2.34 | 5.28 | −2.07 | 2.79 | −1.64 | 2.74 | 6.61
